Laboratory results reported in paper PMC3518395 (Nature communications, 2012).
Square brackets hold non-standard residues; d marks the D form.

How the values were obtained:
αvβ3 = conditions: cited from earlier work
[1] = target: integrin αvβ3 (Homo sapiens) (UniProt P06756); conditions: cited from earlier work
[2] = target: T1, DNA:PNA-D5 (15 c(RGDfK) ligands) (also: 15 copies conjugated via PEG/squarate linker to LKγ-PNA:DNA scaffold); test: 125I-echistatin competitive displacement on C32 cells
T1 chain: cyclo(RGD[dF]K)

Question: Which “echistatin association constant for binding to αvβ3 integrin” value (αvβ3; published value, fixed in the fit) does the source give for Echistatin here?
Answer: 3.33e+09 M

Question: What about the Kd (αvβ3; read-out: Kd of echistatin for αvβ3) of the same molecule?
Answer: 0.3 nM

Question: Which Kd [1] does the source give for echistatin (from UniProt P17347) here?
Answer: 0.3 nM

B1: integrin αvβ3 (protein)
chain 1: FNLDVDSPAEYSGPEGSYFGFAVDFFVPSASSRMFLLVGAPKANTTQPGIVEGGQVLKCDWSSTRRCQPIEFDATGNRDYAKDDPLEFKSHQWFGASVRSKQDKILACAPLYHWRTEMKQEREPVGTCFLQDGTKTVEYAPCRSQDIDADGQGFCQGGFSIDFTKADRVLLGGPGSFYWQGQLISDQVAEIVSKYDPNVYSIKYNNQLATRTAQAIFDDSYLGYSVAVGDFNGDGIDDFVSGVPRAARTLGMVYIYDGKNMSSLYNFTGEQMAAYFGFSVAATDINGDDYADVFIGAPLFMDRGSDGKLQEVGQVSVSLQRASGDFQTTKLNGFEVFARFGSAIAPLGDLDQDGFNDIAIAAPYGGEDKKGIVYIFNGRSTGLNAVPSQILEGQWAARSMPPSFGYSMKGATDIDKNGYPDLIVGAFGVDRAILYRARPVITVNAGLEVYPSILNQDNKTCSLPGTALKVSCFNVRFCLKADGKGVLPRKLNFQVELLLDKLKQKGAIRRALFLYSRSPSHSKNMTISRGGLMQCEELIAYLRDESEFRDKLTPITIFMEYRLDYRTAADTTGLQPILNQFTPANISRQAHILLDCGEDNVCKPKLEVSVDSDQKKIYIGDDNPLTLIVKAQNQGEGAYEAELIVSIPLQADFIGVVRNNEALARLSCAFKTENQTRQVVCDLGNPMKAGTQLLAGLRFSVHQQSEMDTSVKFDLQIQSSNLFDKVSPVVSHKVDLAVLAAVEIRGVSSPDHVFLPIPNWEHKENPETEEDVGPVVQHIYELRNNGPSSFSKAMLHLQWPYKYNNNTLLYILHYDIDGPMNCTSDMEINPLRIKISSLQTTEKNDTVAGQGERDHLITKRDLALSEGDIHTLGCGVAQCLKIVCQVGRLDRGKSAILYVKSLLWTETFMNKENQNHSYSLKSSASFNVIEFPYKNLPIEDITNSTLVTTNVTWGIQPAPMPV
chain 2: GPNICTTRGVSSCQQCLAVSPMCAWCSDEALPLGSPRCDLKENLLKDNCAPESIEFPVSEARVLEDRPLSDKGSGDSSQVTQVSPQRIALRLRPDDSKNFSIQVRQVEDYPVDIYYLMDLSYSMKDDLWSIQNLGTKLATQMRKLTSNLRIGFGAFVDKPVSPYMYISPPEALENPCYDMKTTCLPMFGYKHVLTLTDQVTRFNEEVKKQSVSRNRDAPEGGFDAIMQATVCDEKIGWRNDASHLLVFTTDAKTHIALDGRLAGIVQPNDGQCHVGSDNHYSASTTMDYPSLGLMTEKLSQKNINLIFAVTENVVNLYQNYSELIPGTTVGVLSMDSSNVLQLIVDAYGKIRSKVELEVRDLPEELSLSFNATCLNNEVIPGLKSCMGLKIGDTVSFSIEAKVRGCPQEKEKSFTIKPVGFKDSLIVQVTFDCDCACQAQAEPNSHRCNNGNGTFECGVCRCGPGWLGSQCECSEEDYRPSQQDECSPREGQPVCSQRGECLCGQCVCHSSDFGKITGKYCECDDFSCVRYKGEMCSGHGQCSCGDCLCDSDWTGYYCNCTTRTDTCMSSNGLLCSGRGKCECGSCVCIQPGSYGDTCEKCPTCPDACTFKKECVECKKFDRGALHDENTCNRYCRDEIESVKELKDTGKDAVNCTYKNEDDCVVRFQYYEDSSGKSILYVVEEPECPKGPD
Question: With B1 as the molecule, how does the Kd [2] read?
Answer: 0.16 nM
